The text below walks through data of patent publication US7244557B2, “Method of screening modulators of Nod1 signaling” (Regents of the University of Michigan, priority 2003, dated 2007).

Holding throughout (assay type): cell-based
The target of one assay is T1, NOD1 (Homo sapiens, UniProt Q9Y239).
T1 construct: expressed in transfected cells; host or cells: HEK293T
T1 sequence (Q9Y239 1-953): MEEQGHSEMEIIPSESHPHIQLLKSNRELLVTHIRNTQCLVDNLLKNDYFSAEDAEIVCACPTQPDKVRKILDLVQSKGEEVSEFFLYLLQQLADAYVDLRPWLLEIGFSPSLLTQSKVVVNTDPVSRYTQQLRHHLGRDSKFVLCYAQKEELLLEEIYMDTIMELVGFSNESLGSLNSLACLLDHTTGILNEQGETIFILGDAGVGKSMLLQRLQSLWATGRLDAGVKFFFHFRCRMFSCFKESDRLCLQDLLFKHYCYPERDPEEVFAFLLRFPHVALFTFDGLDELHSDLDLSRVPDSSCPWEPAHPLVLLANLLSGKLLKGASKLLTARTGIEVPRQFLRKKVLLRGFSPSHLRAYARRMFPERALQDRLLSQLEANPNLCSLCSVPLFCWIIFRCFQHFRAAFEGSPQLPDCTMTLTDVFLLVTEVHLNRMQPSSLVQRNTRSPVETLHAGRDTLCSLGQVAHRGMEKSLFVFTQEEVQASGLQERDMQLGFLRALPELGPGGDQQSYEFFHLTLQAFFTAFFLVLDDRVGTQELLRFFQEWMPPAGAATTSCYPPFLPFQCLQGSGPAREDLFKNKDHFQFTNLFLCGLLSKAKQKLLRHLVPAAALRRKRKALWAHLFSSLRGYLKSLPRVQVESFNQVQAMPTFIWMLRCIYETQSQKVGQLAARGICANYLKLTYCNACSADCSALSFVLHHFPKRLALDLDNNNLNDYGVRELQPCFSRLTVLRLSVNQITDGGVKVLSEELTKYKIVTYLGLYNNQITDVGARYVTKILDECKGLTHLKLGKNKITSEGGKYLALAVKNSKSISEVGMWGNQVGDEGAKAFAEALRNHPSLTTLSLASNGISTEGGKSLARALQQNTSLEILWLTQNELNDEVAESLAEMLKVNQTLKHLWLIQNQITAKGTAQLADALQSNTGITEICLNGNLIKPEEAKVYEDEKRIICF
The experiment in a line: NF-κB-dependent luciferase reporter assay, HEK293T cells expressing NOD1. From the text:
Reagents. LPS from S. typhimurium, intact and alkaline-detoxified LPS from E. coli O55:B5 as well as purified lipid A preparations of E. coli F583, MDP, DAP and dsRNA were obtained from Sigma-Aldrich (St. Louis, Mo.). PGN from S. aureus was from Fluka-Chemie (Buchs, Germany). Palmitoyl-Cys ((RS)-2,3-di(palmitoyloxy)-propyl)-Ala-Gly) (sBLP), was obtained from Bachem (Torrance, Calif.). The tetrameric form of the disaccharide dipeptide was described previously (Inohara et al., J. Biol. Chem. 278:5509 [2003]). iE-DAP and iQ-DAP, M3P and M4P were synthesized as described (Kitaura et al., J. Med. Chem. 25:335 [1982]) with small modification. Purification of PGN from B. subtilis 168 and C. flaccumfaciens with hydrolases, Cellosyl or recombinant AtlE (amidase domain) and the fractionation and purification of reduced B. subtilis PGN digested with Cellosyl were performed as previously described (Heilman et al., Mol. Microbiol. 24:1013 [1997]; Atrih et al., J. Bact. 181:3956 [1999]). Removal of proteins and reduction of LPS fraction. E. coli O55:B5 LPS (Sigma) was treated with proteinase K at 37° C. for 12 hr to digest contaminating proteins. To eliminate lipoproteins, LPS was subjected to modified phenol extraction with deoxycholate-containing phenol as described (Hirschfeld et al., J. Immunol. 165:618 [2000]). For reduction of carboxyl group in the LPS, the LPS was treated with 1-ethyl-3-(3-dimethylaminopropyl) carbodiimide and then reduced with NaBH4 as described (Taylor et al., Biochemistry 11:1383 [1972]). Preparation of E. coli extract. E. coli K-12 mutants were all based on the SØ864 genetic background (lacZ trp upp relA rpsL) (Neuhard and Thomassen, J. Bacteriol. 126:999). SØ874 carries a large chromosomal deletion removing the gene clusters for the biosynthesis of CA capsule and O-antigen. CLM5 is a derivative of SØ874 with a transposon insertion in the wecC gene that blocks the synthesis of ECA (Marolda et al., J. Bacteriol. 177:5539[1995]). FAM5 is a derivative of SØ874 carrying a deletion that eliminates the incorporation of heptose in the LPS core. Extracts were prepared from all of these E. coli K-12 strains and also from another E. coli K-12 strain, LCD27 YA21-6 (Obtained from Dr. Arisaka, Tokyo Institute of Technology). Bacteria were cultured overnight at 37° C. in Luria broth, killed by treatment with acetone followed by vacuum drying and finally resuspended in 10 mM HEPES. The extract was treated with 1M NaOH at 55° C. for 12 hr and neutralized with 1M HEPES (pH 7.4). The soluble fraction after centrifugation and filtration with 0.22 μm filter was applied to SUPEROSE 12 gel filtration column chromatography. Partial purification of NOD1-stimulatory molecules from E. coli and composition analyses. The amino acid composition of E. coli O55:B5 LPS was determined using AccQ·Tag amino acid analysis system (Waters, Milford, Mass.) after hydrolysis at 110° C. for 24 hr. For carbohydrate analysis, E coli K-12 YA21-6 (Ref 26) cultured overnight at 37° C. in L-broth were washed with TBS twice and incubated with TBS containing 1 mglml DNase I, RNase I and lysozyme for 37° C. for 2 hr. Acetone was added to the extracts at 50% final concentration and the insoluble fractions were washed with an excess of 75% and 100% acetone. After vacuum drying, the acetone extract was solublized with 1 M NaOH and incubated at 60° C. for 24 hr. The pH was adjusted to pH 5.0 with acetic acid and the soluble fraction was passed through SUPEROSE gel filtration column. SUPEROSE fractions with NOD1-stimulatory activity were diluted with 10 mM Tris-HCl (pH 8.8) and subjected to UnoQ column chromatography. The fractions were eluted with a linear gradient of 0–300 mM NaCl. The positive fractions were dialyzed against water and dried under vacuum. The monosaccharide composition of the fractions after TFA/methanol degradation was determined as previously described (Forsberg et al., J. Biol. Chem. 273:2747[1998]). Transfection and NF-κB Activation Assay. […]

Another assay concerns the target T2, NOD2 (Homo sapiens, UniProt Q9HC29).
T2 construct: expressed in transfected cells; host or cells: HEK293T
Kind of assay: NF-κB-dependent luciferase reporter assay, HEK293T cells expressing NOD2. The text has this:
(§1) Reagents. LPS from S. typhimurium, intact and alkaline-detoxified LPS from E. coli O55:B5 as well as purified lipid A preparations of E. coli F583, MDP, DAP and dsRNA were obtained from Sigma-Aldrich (St. Louis, Mo.). PGN from S. aureus was from Fluka-Chemie (Buchs, Germany). Palmitoyl-Cys ((RS)-2,3-di(palmitoyloxy)-propyl)-Ala-Gly) (sBLP), was obtained from Bachem (Torrance, Calif.). The tetrameric form of the disaccharide dipeptide was described previously (Inohara et al., J. Biol. Chem. 278:5509 [2003]). iE-DAP and iQ-DAP, M3P and M4P were synthesized as described (Kitaura et al., J. Med. Chem. 25:335 [1982]) with small modification. Purification of PGN from B. subtilis 168 and C. flaccumfaciens with hydrolases, Cellosyl or recombinant AtlE (amidase domain) and the fractionation and purification of reduced B. subtilis PGN digested with Cellosyl were performed as previously described (Heilman et al., Mol. Microbiol. 24:1013 [1997]; Atrih et al., J. Bact. 181:3956 [1999]). Removal of proteins and reduction of LPS fraction. […] The amino acid composition of E. coli O55:B5 LPS was determined using AccQ·Tag amino acid analysis system (Waters, Milford, Mass.) after hydrolysis at 110° C. for 24 hr. […] The monosaccharide composition of the fractions after TFA/methanol degradation was determined as previously described (Forsberg et al., J. Biol. Chem. 273:2747[1998]). […]

The target in the next assay is T3, TLR4/MD-2 (Homo sapiens, UniProt O00206+Q9Y6Y9).
T3 construct: expressed in transfected cells; host or cells: HEK293T
T3 sequence (O00206 24-839, species assumed): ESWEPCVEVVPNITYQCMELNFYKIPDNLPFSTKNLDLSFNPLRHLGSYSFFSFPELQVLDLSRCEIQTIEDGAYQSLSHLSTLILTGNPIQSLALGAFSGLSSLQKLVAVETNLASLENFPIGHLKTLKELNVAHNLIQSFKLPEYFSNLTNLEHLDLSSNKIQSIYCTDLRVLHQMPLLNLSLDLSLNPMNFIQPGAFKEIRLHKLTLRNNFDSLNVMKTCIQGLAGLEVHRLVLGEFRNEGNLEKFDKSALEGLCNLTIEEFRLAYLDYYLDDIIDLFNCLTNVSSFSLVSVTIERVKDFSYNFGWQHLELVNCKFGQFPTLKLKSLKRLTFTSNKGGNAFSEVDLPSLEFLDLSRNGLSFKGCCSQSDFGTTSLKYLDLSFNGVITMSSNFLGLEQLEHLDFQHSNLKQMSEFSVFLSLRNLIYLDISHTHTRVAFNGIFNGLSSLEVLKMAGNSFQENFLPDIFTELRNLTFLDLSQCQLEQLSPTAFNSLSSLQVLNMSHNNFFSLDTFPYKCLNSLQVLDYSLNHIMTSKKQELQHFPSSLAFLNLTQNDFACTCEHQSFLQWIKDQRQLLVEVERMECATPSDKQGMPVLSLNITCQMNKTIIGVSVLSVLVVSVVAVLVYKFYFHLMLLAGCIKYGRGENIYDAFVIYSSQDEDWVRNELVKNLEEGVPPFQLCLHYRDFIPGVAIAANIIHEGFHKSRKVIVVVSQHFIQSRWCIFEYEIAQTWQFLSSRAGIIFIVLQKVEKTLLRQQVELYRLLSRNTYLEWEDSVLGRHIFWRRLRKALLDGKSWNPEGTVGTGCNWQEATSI
T3 sequence (Q9Y6Y9 19-160, species assumed): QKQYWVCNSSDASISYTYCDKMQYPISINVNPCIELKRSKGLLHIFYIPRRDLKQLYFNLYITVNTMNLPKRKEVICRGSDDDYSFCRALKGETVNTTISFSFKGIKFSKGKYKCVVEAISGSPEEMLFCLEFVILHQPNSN
The experiment in a line: NF-κB-dependent luciferase reporter assay, HEK293T cells expressing TLR4 with co-factor MD-2.
Text: as §1

T2 sequence (Q9HC29 whole entry): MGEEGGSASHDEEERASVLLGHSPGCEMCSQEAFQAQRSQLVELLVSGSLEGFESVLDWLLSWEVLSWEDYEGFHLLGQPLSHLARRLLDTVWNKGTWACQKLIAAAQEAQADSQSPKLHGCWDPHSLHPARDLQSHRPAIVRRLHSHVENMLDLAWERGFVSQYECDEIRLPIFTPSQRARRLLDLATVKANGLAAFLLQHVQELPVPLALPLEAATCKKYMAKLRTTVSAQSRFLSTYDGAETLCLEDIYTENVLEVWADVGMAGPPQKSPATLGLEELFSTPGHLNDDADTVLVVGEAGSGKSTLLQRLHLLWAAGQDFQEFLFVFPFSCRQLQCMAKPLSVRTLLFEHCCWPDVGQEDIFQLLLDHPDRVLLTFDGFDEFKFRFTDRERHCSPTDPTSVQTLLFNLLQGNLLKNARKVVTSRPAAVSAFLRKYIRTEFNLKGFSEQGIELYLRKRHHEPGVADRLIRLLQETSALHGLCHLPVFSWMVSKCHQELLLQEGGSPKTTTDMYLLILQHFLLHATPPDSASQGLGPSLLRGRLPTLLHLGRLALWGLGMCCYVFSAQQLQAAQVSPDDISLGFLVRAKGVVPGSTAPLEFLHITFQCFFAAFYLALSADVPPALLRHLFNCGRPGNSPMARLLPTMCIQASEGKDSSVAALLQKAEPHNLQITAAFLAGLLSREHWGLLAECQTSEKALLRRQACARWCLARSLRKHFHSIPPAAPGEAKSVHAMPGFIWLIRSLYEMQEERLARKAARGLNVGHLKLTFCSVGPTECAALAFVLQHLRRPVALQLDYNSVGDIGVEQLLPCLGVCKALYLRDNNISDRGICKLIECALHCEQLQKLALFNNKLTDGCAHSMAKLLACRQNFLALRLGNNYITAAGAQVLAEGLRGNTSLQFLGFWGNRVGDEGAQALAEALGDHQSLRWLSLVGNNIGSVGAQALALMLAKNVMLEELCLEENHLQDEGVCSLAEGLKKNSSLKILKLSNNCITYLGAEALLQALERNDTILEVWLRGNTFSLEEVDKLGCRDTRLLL

On to MurNAc-L-Ala-γ-D-Gln-L-Lys [M3P], for which the “NOD1-dependent NF-κB activation (NOD1 stimulation)” value (“NOD1-dependent NF-κB activation” below) at NOD1 is on record as “failed to stimulate NOD1”.
Regarding “N-acetylglucosamine(GlcNAc)-N-acetyl-Muramicitol-L-Ala-γ-D-Glu-meso-DAP [GM3p]”, the “NOD1-dependent NF-κB activation” value at NOD1 is reported as “stimulated NOD1 in a dose-dependent manner”.
The same measure, in the same setting: to MurNAc-L-Ala-γ-D-Gln-L-Lys-D-Ala [M4P] belongs “failed to stimulate NOD1”.
With lipid A, the “NOD2-dependent NF-κB activation” value at NOD2 is “not NOD1 and NOD2”. Besides, the “NOD1-dependent NF-κB activation” value on NOD1 is “not NOD1 and NOD2”. On TLR4/MD-2, the “TLR4/MD-2-dependent NF-κB activation” value is “responded”.
Turning to `N[C@H](CCC[C@H](N)C(=O)O)C(=O)O` [DAP, diaminopimelic acid], the “NOD1-dependent NF-κB activation” value at NOD1 is listed as “unable to stimulate NOD1”.
